Measurements taken from ChEMBL document CHEMBL1255230, “Chemical inhibitor of nonapoptotic cell death with therapeutic potential for ischemic brain injury” (Nat Chem Biol, 2005).
pIC50: −log10 of the molar value. Activity calls are given as the source filed them. The calls are words filed in the database; no cut-off is given here. Residues, ends and D or L forms follow the SMILES beside them. *: point of attachment. Cbz = O=C(OCc1ccccc1)*; CH2F = FC*

Key:
[1] = Inhibition of death receptor signaling mediated necroptotic cell death in human Jurkat cell deficient in FADD assessed as cell viability after 30 hrs by ATP based viability assay in presence of TNFalpha
[2] = system: Mus musculus; assay: Inhibition of necroptosis in icv dosed mouse middle cerebral artery occlusion induced ischemic injury model assessed as reduction of infarct volume drug administered 4 hrs postocclusion; format: functional, organism-based
[3] = system: Mus musculus; assay: Inhibition of necroptosis in icv dosed mouse middle cerebral artery occlusion induced ischemic injury model assessed as reduction of infarct volume drug administered 6 hrs postocclusion; format: functional, organism-based
[4] = system: Mus musculus; assay: Inhibition of necroptosis in mouse middle cerebral artery occlusion induced ischemic injury model assessed as reduction of infarct volume at 2-4 mM, icv before occlusion; format: functional, organism-based
[5] = system: Mus musculus; assay: Inhibition of necroptosis in mouse middle cerebral artery occlusion induced ischemic injury model assessed as reduction of infarct volume at 2-4 mM, icv after occlusion; format: functional, organism-based
[6] = system: Mus musculus; assay: Inhibition of necroptosis in icv dosed mouse middle cerebral artery occlusion induced ischemic injury model assessed as improvement in neurological score drug administration before occlusion; format: functional, organism-based
[7] = system: Mus musculus; assay: Inhibition of necroptosis in icv dosed mouse middle cerebral artery occlusion induced ischemic injury model assessed as improvement in neurological score drug administration after occlusion; format: functional, organism-based
[8] = system: Mus musculus; assay: Inhibition of caspase3 in icv dosed mouse middle cerebral artery occlusion induced ischemic injury model after 3 hrs by Western blot method drug administered before occlusion; format: functional, organism-based
[9] = system: Mus musculus; assay: Inhibition of necroptosis in icv dosed mouse middle cerebral artery occlusion induced ischemic injury model assessed as reduction of infarct volume drug administered 5 mins preocclusion; format: functional, organism-based
[10] = system: Mus musculus; assay: Inhibition of necroptosis in icv dosed mouse middle cerebral artery occlusion induced ischemic injury model assessed as reduction of infarct volume drug administered 2 hrs postocclusion; format: functional, organism-based
[11] = system: Mus musculus; assay: Inhibition of necroptosis in icv dosed mouse middle cerebral artery occlusion induced ischemic injury model assessed as induction of LC3-II after 5 hrs by Western blot method; format: functional, organism-based
[12] = system: Mus musculus; assay: Inhibition of necroptosis in icv dosed mouse middle cerebral artery occlusion induced ischemic injury model assessed as induction of LC3-II after 8 hrs by Western blot method; format: functional, organism-based
[13] = system: Mus musculus; assay: Inhibition of necroptosis in icv dosed mouse middle cerebral artery occlusion induced ischemic injury model assessed as induction of LC3-II after 26 hrs by Western blot method; format: functional, organism-based
[14] = system: Mus musculus; assay: Inhibition of necroptosis in icv dosed mouse middle cerebral artery occlusion induced ischemic injury model assessed as induction of LC3-II by Western blot method drug administered 4 hrs postocclusion; format: functional, organism-based
[15] = system: Mus musculus; assay: Inhibition of necroptosis in icv dosed mouse middle cerebral artery occlusion induced ischemic injury model assessed as induction of LC3-II by Western blot method drug administered 6hrs postocclusion; format: functional, organism-based
[16] = system: Mus musculus; assay: Inhibition of necroptosis in icv dosed mouse middle cerebral artery occlusion induced ischemic injury model assessed as induction of LC3-II by Western blot method drug administered 8 hrs postocclusion; format: functional, organism-based
[17] = system: Jurkat; assay: Ratio of compound IC50 to Nec-1 IC50 for human jurkat cells; format: functional
[18] = system: Mus musculus; assay: Inhibition of necroptosis in icv dosed mouse middle cerebral artery occlusion induced ischemic injury model assessed as reduction of infarct volume; format: functional, organism-based

CN1C(=O)NC(Cc2c[nH]c3c(Cl)cccc23)C1=O (configuration not stated)
pIC50 [1]: 6.69
inhibition [2]: Active
inhibition [3]: Active

CN1C(=O)C(Cc2c[nH]c3c(Cl)cccc23)NC1=S (configuration not stated)
pIC50 [1]: 6.74
inhibition [4]: Dose-dependent effect
inhibition [5]: Dose-dependent effect
inhibition [6]: Dose-dependent effect
inhibition [7]: Dose-dependent effect
inhibition [8]: inactive
inhibition [3]: Active
inhibition [9]: Active
inhibition [10]: Active
Activity [11]: Active
Activity [12]: Active
Activity [13]: Active
Activity [14]: Active
Activity [15]: Active
Activity [16]: Active
fold change (FC) [17]: 2.7

O=C1NC(=S)NC1Cc1c[nH]c2ccccc12 (configuration not stated)
inhibition [18]: inactive

CC(C)[C@H](NC(=O)OCc1ccccc1)C(=O)N[C@@H](C)C(=O)N[C@@H](CC(=O)O)C(=O)CF (Cbz-Val-Ala-Asp-CH2F)
inhibition [8]: Active
inhibition [3]: inactive
